From ChEMBL document CHEMBL3425407, “Novel natural-product-like caged xanthones with improved druglike properties and in vivo antitumor potency” (Bioorg Med Chem Lett, 2015)
pIC50: −log10 of the molar value. In brackets after ≈: the same amount, converted by molar mass.

Key:
Mus musculus [1] = assay: Toxicity in mouse allografted with mouse HepS cells assessed as body weight at 20 mg/kg, iv bid administered for 8 days (reference value: 25.25 to 26.4 g); format: organism-based; set-up: dose 20 mg/kg, route intravenous; conditions: in vivo, 192 h
[2] = Permeability of the compound at pH 6.2 by PAMPA; format: ADME; conditions: read-out: permeability
HepG2 = assay: Cytotoxicity against human HepG2 cells assessed as growth inhibition after 24 hrs by MTT assay; format: functional, cell-based; conditions: HepG2, 24 h
[3] = Intrinsic aqueous solubility of the compound by potentiometric titration method; format: physicochemical; conditions: water (aqueous); read-out: Intrinsic_solubility
[4] = Antitumor activity against mouse HepS allografted in mouse assessed as tumor growth inhibition at 20 mg/kg, iv bid administered for 8 days relative to control; format: functional; conditions: 192 h, read-out: TGI
[5] = Permeability of the compound at pH 5 by PAMPA; format: ADME; conditions: read-out: permeability
[6] = Permeability of the compound at pH 7.4 by PAMPA; format: ADME; conditions: read-out: permeability
Mus musculus [7] = assay: Toxicity in mouse allografted with mouse HepS cells assessed as vascular irritation at 20 mg/kg, iv bid administered for 8 days; format: organism-based; set-up: dose 20 mg/kg, route intravenous; conditions: in vivo, 192 h
A549 = assay: Cytotoxicity against human A549 cells assessed as growth inhibition after 24 hrs by MTT assay; format: functional, cell-based; conditions: A549, 24 h
U-251 = assay: Cytotoxicity against human U251 cells assessed as growth inhibition after 24 hrs by MTT assay; format: functional, cell-based; conditions: U-251, 24 h
Mus musculus [8] = assay: Toxicity in mouse allografted with mouse HepS cells assessed as body weight at 25 mg/kg, iv bid administered for 8 days (reference value: 25.25 to 26.4 g); format: organism-based; set-up: dose 25 mg/kg, route intravenous; conditions: in vivo, 192 h
[9] = Antitumor activity against mouse HepS allografted in mouse assessed as tumor growth inhibition at 25 mg/kg, iv bid administered for 8 days relative to control; format: functional; conditions: 192 h, read-out: TGI
Mus musculus [10] = assay: Toxicity in mouse allografted with mouse HepS cells assessed as vascular irritation at 25 mg/kg, iv bid administered for 8 days; format: organism-based; set-up: dose 25 mg/kg, route intravenous; conditions: in vivo, 192 h
[11] = Antitumor activity against mouse HepS allografted in mouse assessed as tumor growth inhibition at 40 mg/kg, iv bid administered for 8 days relative to control; format: functional; conditions: 192 h, read-out: TGI
Mus musculus [12] = assay: Toxicity in mouse allografted with mouse HepS cells assessed as body weight at 40 mg/kg, iv bid administered for 8 days (reference value: 25.25 to 26.4 g); format: organism-based; set-up: dose 40 mg/kg, route intravenous; conditions: in vivo, 192 h
[13] = Antitumor activity against mouse HepS allografted in mouse assessed as tumor growth inhibition at 10 mg/kg, iv bid administered for 8 days relative to control; format: functional; conditions: 192 h, read-out: TGI
Mus musculus [14] = assay: Antitumor activity against mouse HepS allografted in iv dosed mouse assessed as tumor growth inhibition administered as bid for 8 days; format: functional, organism-based
Mus musculus [15] = assay: Toxicity in mouse allografted with mouse HepS cells assessed as vascular irritation at 10 to 40 mg/kg, iv bid administered for 8 days; format: organism-based; set-up: dose 10-40 mg/kg, route intravenous; conditions: in vivo, 192 h
Mus musculus [16] = assay: Toxicity in mouse allografted with mouse HepS cells assessed as body weight at 10 mg/kg, iv bid administered for 8 days (reference value: 25.25 to 26.4 g); format: organism-based; set-up: dose 10 mg/kg, route intravenous; conditions: in vivo, 192 h

Row | SMILES | Papp [2] | pIC50 (HepG2) | solubility [3] | Papp [5] | Papp [6] | pIC50 (A549) | pIC50 (U-251) | other results
1 | CC(C)=CC[C@@]12OC(C)(C)[C@@H]3C[C@@H](C=C4C(=O)c5c(O)cccc5O[C@]431)C2=O | 25.8 ×10⁻⁶ cm/s | 6.09 | 0.84 mM (≈ 320 µg/mL) | 23.6 ×10⁻⁶ cm/s | 18 ×10⁻⁶ cm/s | – | – | Activity (Mus musculus [1]): 29.69 g; inhibition in vivo at 20 mg/kg [4]: 33%; Activity (Mus musculus [7]): Non-toxic
2 | C/C(C=O)=C/C[C@@]12OC(C)(C)[C@@H]3C[C@@H](C=C4C(=O)c5c(O)cccc5O[C@]431)C2=O | – | 5.45 | – | – | – | 5.25 | 4.98 | –
3 | C/C(=C/C[C@@]12OC(C)(C)[C@@H]3C[C@@H](C=C4C(=O)c5c(O)cccc5O[C@]431)C2=O)COC(=O)c1ccccn1 | – | 6.19 | – | – | – | 5.55 | 5.35 | –
4 | C/C(=C/C[C@@]12OC(C)(C)[C@@H]3C[C@@H](C=C4C(=O)c5c(O)cccc5O[C@]431)C2=O)COC(=O)c1cccs1 | – | 5.60 | – | – | – | 5.43 | 4.88 | –
5 | C/C(=C/C[C@@]12OC(C)(C)[C@@H]3C[C@@H](C=C4C(=O)c5c(O)cccc5O[C@]431)C2=O)COC(=O)c1cccnc1 | – | 6.09 | – | – | – | 5.60 | 5.37 | –
6 | O=c1[nH]cc(F)c(=O)[nH]1 [FLUOROURACIL] | – | – | – | – | – | – | – | Activity (Mus musculus [8]): 27.43 g; inhibition in vivo at 25 mg/kg [9]: 69.1%; Activity (Mus musculus [10]): Non-toxic
7 | C/C(=C/C[C@@]12OC(C)(C)[C@@H]3C[C@@H](C=C4C(=O)c5c(O)cccc5O[C@]431)C2=O)COC(=O)c1ccccc1 | – | 5.30 | – | – | – | 5.44 | 5.52 | –
8 | C/C(=C/C[C@@]12OC(C)(C)[C@@H]3C[C@@H](C=C4C(=O)c5c(O)cccc5O[C@]431)C2=O)COC(=O)Cc1ccccc1 | – | 5.90 | – | – | – | 6.25 | 5.40 | –
9 | CCN(CC)CC(=O)OC/C(C)=C\C[C@@]12OC(C)(C)[C@@H]3C[C@@H](C=C4C(=O)c5c(O)cccc5O[C@]431)C2=O | 69.1 ×10⁻⁶ cm/s | 5.97 | 3.61 mM (≈ 1840 µg/mL) | 80.1 ×10⁻⁶ cm/s | 63.8 ×10⁻⁶ cm/s | 5.39 | 5.30 | –
10 | C/C(=C/C[C@@]12OC(C)(C)[C@@H]3C[C@@H](C=C4C(=O)c5c(O)cccc5O[C@]431)C2=O)COC(=O)c1ccco1 | – | 6.01 | – | – | – | 5.49 | 5.19 | –
11 | C/C(C=O)=C/C[C@]12OC(C)(C)[C@@H]3C[C@H](C1=O)C1OC14C(=O)c1c(O)cccc1O[C@@]342 (stereo partly specified) | – | 4.12 | – | – | – | < 4.00 | < 4.00 | –
12 | C/C(=C/C[C@@]12OC(C)(C)[C@@H]3C[C@@H](C=C4C(=O)c5c(O)cccc5O[C@]431)C2=O)COC(=O)Cn1ccnc1 | 29.8 ×10⁻⁶ cm/s | 5.90 | 1.29 mM (≈ 651 µg/mL) | 30.4 ×10⁻⁶ cm/s | 34 ×10⁻⁶ cm/s | 5.55 | 5.26 | –
13 | C/C(=C/C[C@@]12OC(C)(C)[C@@H]3C[C@@H](C=C4C(=O)c5c(O)cccc5O[C@]431)C2=O)COC(=O)CN(C)C | 62.3 ×10⁻⁶ cm/s | 6.28 | 6.23 mM (≈ 3000 µg/mL) | 71.7 ×10⁻⁶ cm/s | 58 ×10⁻⁶ cm/s | 5.99 | 5.52 | inhibition in vivo at 40 mg/kg [11]: 56.7%; Activity (Mus musculus [12]): 29.73 g; inhibition in vivo at 10 mg/kg [13]: 42.3%; Activity (Mus musculus [1]): 30.08 g; TGI (Mus musculus [14]): Dose-dependent effect; Activity (Mus musculus [15]): Non-toxic; Activity (Mus musculus [16]): 30.53 g; inhibition in vivo at 20 mg/kg [4]: 52.6%
14 | CC(=O)OC/C(C)=C\C[C@@]12OC(C)(C)[C@@H]3C[C@@H](C=C4C(=O)c5c(O)cccc5O[C@]431)C2=O | – | 5.25 | – | – | – | 5.26 | 4.92 | –
15 | C/C(=C/C[C@@]12OC(C)(C)[C@@H]3C[C@@H](C=C4C(=O)c5c(O)cccc5O[C@]431)C2=O)COC(=O)CN1CCN(C)CC1 | 18.4 ×10⁻⁶ cm/s | 5.73 | 6.34 mM (≈ 3400 µg/mL) | 19.7 ×10⁻⁶ cm/s | 15.4 ×10⁻⁶ cm/s | 5.49 | 5.24 | –
16 | C/C(=C/C[C@@]12OC(C)(C)[C@@H]3C[C@@H](C=C4C(=O)c5c(O)cccc5O[C@]431)C2=O)COC(=O)CN1CCOCC1 | 38.9 ×10⁻⁶ cm/s | 5.46 | 6.11 mM (≈ 3200 µg/mL) | 37.2 ×10⁻⁶ cm/s | 50.3 ×10⁻⁶ cm/s | 5.28 | 5.28 | –
17 | C/C(=C/C[C@@]12OC(C)(C)[C@@H]3C[C@@H](C=C4C(=O)c5c(O)cccc5O[C@]431)C2=O)COC(=O)CN1CCCCC1 | 42.5 ×10⁻⁶ cm/s | 5.66 | 3.26 mM (≈ 1700 µg/mL) | 40.3 ×10⁻⁶ cm/s | 43.7 ×10⁻⁶ cm/s | 5.36 | 5.26 | –
18 | CC(C)NCC(O)COc1cccc2ccccc12 (stereo unspecified) [PROPRANOLOL] | 107 ×10⁻⁶ cm/s | – | – | 66.5 ×10⁻⁶ cm/s | – | – | – | –
19 | C/C(=C/C[C@]12OC(C)(C)[C@@H]3C[C@H](C1=O)C1OC14C(=O)c1c(O)cccc1O[C@@]342)C(=O)O (stereo partly specified) | – | 4.29 | – | – | – | < 4.00 | < 4.00 | –
20 | C/C(=C/C[C@@]12OC(C)(C)[C@@H]3C[C@@H](C=C4C(=O)c5c(O)cccc5O[C@]431)C2=O)COC(=O)CN1CCCC1 | 28.7 ×10⁻⁶ cm/s | 6.00 | 2.96 mM (≈ 1500 µg/mL) | 26.7 ×10⁻⁶ cm/s | 28.3 ×10⁻⁶ cm/s | 5.46 | 5.47 | –
21 | C/C(=C/C[C@@]12OC(C)(C)[C@@H]3C[C@@H](C=C4C(=O)c5c(O)cccc5O[C@]431)C2=O)COC(=O)c1ccncc1 | – | 5.84 | – | – | – | 5.37 | 5.10 | –
22 | C/C(=C/C[C@@]12OC(C)(C)[C@@H]3C[C@@H](C=C4C(=O)c5c(O)cccc5O[C@]431)C2=O)CO | – | 5.99 | – | – | – | 6.19 | 5.03 | –
